Experimental findings from publication PMC5589751, “Synthesis, high-throughput screening and pharmacological characterization of β–lactam derivatives as TRPM8 antagonists” (Scientific Reports, 2017) are described below.

By pIC50 is commonly meant the IC50 on a negative log10 scale, so that one unit is a factor of ten.

pIC50: −log10 of the molar value. Some results are limits rather than exact numbers.

Holding throughout (type): cell-based
For experiment [1], the target named is T1, TRPM8 (Rattus norvegicus, UniProt Q8R455).
T1 construct: expressed in transfected cells
T1 sequence (Q8R455 whole entry): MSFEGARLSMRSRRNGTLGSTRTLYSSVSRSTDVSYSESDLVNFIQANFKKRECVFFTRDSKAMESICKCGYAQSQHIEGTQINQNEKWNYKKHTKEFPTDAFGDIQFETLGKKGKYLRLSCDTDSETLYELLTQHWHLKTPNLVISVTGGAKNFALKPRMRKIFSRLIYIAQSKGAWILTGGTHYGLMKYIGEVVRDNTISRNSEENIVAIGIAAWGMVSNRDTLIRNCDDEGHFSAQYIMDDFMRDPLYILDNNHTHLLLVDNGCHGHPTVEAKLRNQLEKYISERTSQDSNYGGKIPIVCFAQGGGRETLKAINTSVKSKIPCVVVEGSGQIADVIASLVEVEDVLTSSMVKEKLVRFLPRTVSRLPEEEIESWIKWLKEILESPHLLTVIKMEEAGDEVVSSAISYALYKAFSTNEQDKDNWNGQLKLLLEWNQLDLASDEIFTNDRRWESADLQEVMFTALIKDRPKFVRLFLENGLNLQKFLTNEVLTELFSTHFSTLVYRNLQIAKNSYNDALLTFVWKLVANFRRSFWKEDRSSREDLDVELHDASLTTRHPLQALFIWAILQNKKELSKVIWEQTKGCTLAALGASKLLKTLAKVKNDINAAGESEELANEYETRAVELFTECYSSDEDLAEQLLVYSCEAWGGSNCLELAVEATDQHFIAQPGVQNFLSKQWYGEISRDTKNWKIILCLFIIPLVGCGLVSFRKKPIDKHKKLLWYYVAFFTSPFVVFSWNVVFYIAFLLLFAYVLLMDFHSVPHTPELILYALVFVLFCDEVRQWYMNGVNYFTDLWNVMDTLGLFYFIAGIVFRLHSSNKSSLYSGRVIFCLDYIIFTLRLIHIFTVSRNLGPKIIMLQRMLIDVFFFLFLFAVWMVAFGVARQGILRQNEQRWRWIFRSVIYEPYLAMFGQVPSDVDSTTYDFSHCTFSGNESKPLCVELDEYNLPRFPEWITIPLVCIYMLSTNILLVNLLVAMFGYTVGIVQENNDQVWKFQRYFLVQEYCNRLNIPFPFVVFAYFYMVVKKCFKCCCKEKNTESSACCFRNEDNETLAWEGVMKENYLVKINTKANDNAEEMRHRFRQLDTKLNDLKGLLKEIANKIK
As to the kind of experiment: Whole-cell patch clamp in TRPM8-expressing HEK-CR1 cells (menthol, voltage, cold). To be noted: for effect on menthol-evoked TRPM8 current at 1 µM / pIC50: 500 µM menthol; for effect on cold-evoked TRPM8 current: cold 16 °C; for pIC50: whole cell, ratio P2/P1, read-out: IC50, TRPM8 activity evoked by menthol (patch clamp); for Hill coefficient nH: dose-response against 500 µM menthol. On the procedure: As depicted in Fig. 3, perfusion with 500 µM menthol activated a large TRPM8 inward current at −60 mV (Fig. 3, control). […] The extent of TRPM8 activity shown in Fig. 3 corresponds to the ratio of channel activity between the second (P2) and the first (P1) pulses (ratio P2/P1) of menthol in order to take into account the channel desensitization (supplementary information Fig. 3S)[36], [37].
Left: Representative whole-cell voltage clamp recordings from TRPM8-expressing HEK-CR1 cells and compound 41 (A) and 45 (B). Voltage was held at −60 mV. Pre-application of compounds (20 s) was followed by co-application with 500 µM menthol (Control) for 20s. Current traces of different colours denote the different concentrations of compounds tested. Right: Dose response of compound 41 (A, red), 45 (B, blue) TRPM8 blocked activity. Solid line depicts the fitting to a Hill equation. Data are given as mean ± SEM, with n > 4 cells per data point.
Figure 4 Compound 41 abolished the voltage-evoked response on TRPM8. (A) Representative families of TRPM8 ionic currents in absence (Control) or presence of 1 μM 41 elicited with a voltage step protocol consisting of 200-ms depolarizing pulses from −60 to +120 mV in steps of 20 mV (inset). Holding potential −60 mV, time between pulses = 5s. (B) I-V relationships of TRPM8 channel activity in the absence (black) and presence of 1 µM 41 (red).
Figure 5 Compound 41 abolished the cold thermal activity response on TRPM8. Left: Representative families of TRPM8 ionic currents at +80mV in absence (A) or presence of 1µM 41 (B) activated by cold temperature (16 °C) obtained with a 300-ms ramp from −80 to +80 mV in intervals of 2 s during 3 minutes. Holding potential −60 mV. Right: I-V relationships of TRPM8 channel in basal conditions (a, black line), activated by cold in the absence (b, green line) and presence of 1 µM 41 (c, blue line). (C) Ratio currents between pulse 2 and pulse 1 induced by menthol in the absence (black bar) or in the presence (blue bar) of compound 41.
(§1) Electrophysiological recording was carried out 1–3 d after cells seeded. Membrane currents and voltages were recorded by patch clamp using the whole-cell configuration. For whole-cell recordings of HEK-hTRPV1 and HEK-TRPM8 cells, pipette solution contained (in mM) 140 CsCl, 5 EGTA, and 10 HEPES, adjusted to pH 7.2 with CsOH, and bath solution contained (in mM) 140 NaCl, 5 KCl, 2 CaCl2, 2 MgCl2, 5 EGTA, 10 D-glucose, 10 Mannitol and 10 HEPES, adjusted to pH 7.4 with NaOH. In calcium-free bath solution, CaCl2 was replaced with 5mM EGTA. For potassium and sodium recordings, CsCl was substituted by KCl and the pH was adjusted to pH 7.2 with KOH. Patch pipettes were prepared from thin-walled borosilicate glass capillaries (World Precision Instruments, Sarasota, FL, USA), pulled with a horizontal puller (P-97, Sutter Instruments, Novato, CA, USA) to have a tip resistance of 2–4 MΩ when filled with internal solutions. Data were sampled at 10 kHz (EPC10 amplifier with PatchMaster 2.53 software, HEKA Electronics, Lambrecht, Germany) and low-pass filtered at 3 kHz for analysis (PatchMaster 2.53 and GraphPad Prism 5, Graphpad Software, USA). The series resistance was <10 MΩ and to minimize voltage errors was compensated to 60–80%. All measurements were performed at 24–25°C. The temperature was adjusted with a water-cooled Peltier device placed at the inlet of the chamber and controlled by a feedback device (Automatic Temperature Controller TC-324B, Warner Instruments). Cold-sensitivity was investigated with a temperature decrease to 16–18 °C.
(The patch-clamp technique gives a direct electrical read-out from membranes.)

For experiment [2], the target named is T2, hTRPV1 (Homo sapiens, UniProt Q8NER1).
T2 construct: expressed in transfected cells; host or cells: HEK
T2 sequence (Q8NER1 whole entry): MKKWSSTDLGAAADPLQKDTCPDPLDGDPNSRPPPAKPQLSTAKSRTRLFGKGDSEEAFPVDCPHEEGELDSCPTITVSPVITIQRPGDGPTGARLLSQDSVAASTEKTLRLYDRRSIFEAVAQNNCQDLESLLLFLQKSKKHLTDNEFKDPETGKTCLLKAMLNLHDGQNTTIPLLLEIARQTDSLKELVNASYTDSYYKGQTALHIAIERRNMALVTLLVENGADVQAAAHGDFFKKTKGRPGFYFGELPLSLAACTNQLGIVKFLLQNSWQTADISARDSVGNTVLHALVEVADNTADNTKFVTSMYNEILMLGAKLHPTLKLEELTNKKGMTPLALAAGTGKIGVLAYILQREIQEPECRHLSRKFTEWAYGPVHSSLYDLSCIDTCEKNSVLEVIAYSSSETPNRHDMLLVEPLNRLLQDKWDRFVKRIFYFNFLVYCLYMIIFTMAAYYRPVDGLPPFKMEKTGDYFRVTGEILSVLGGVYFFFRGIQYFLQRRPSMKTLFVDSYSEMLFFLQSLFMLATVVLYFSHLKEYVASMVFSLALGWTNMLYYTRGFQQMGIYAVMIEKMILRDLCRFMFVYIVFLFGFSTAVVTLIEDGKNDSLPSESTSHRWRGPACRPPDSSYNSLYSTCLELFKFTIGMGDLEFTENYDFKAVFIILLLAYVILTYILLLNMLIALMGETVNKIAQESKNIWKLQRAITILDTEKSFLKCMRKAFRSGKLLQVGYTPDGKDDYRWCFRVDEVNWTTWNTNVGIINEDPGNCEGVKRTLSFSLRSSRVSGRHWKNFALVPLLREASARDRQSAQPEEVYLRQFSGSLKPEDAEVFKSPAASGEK
As to the kind of experiment: Whole-cell patch clamp in cells expressing hTRPV1. On the procedure:
(§2) Electrophysiological recording was carried out 1-3 d after cells seeded. Membrane currents and voltages were recorded by patch clamp using the whole-cell configuration. […] In calcium-free bath solution, CaCl2 was replaced with 5mM EGTA. For potassium and sodium recordings, CsCl was substituted by KCl and the pH was adjusted to pH 7.2 with KOH. Patch pipettes were prepared from thin-walled borosilicate glass capillaries (World Precision Instruments, Sarasota, FL, USA), pulled with a horizontal puller (P-97, Sutter Instruments, Novato, CA, USA) to have a tip resistance of 2-4 MΩ when filled with internal solutions. Data were sampled at 10 kHz (EPC10 amplifier with PatchMaster 2.53 software, HEKA Electronics, Lambrecht, Germany) and low-pass filtered at 3 kHz for analysis (PatchMaster 2.53 and GraphPad Prism 5, Graphpad Software, USA). The series resistance was <10 MΩ and to minimize voltage errors was compensated to 60-80%. All measurements were performed at 24-25°C. The temperature was adjusted with a water-cooled Peltier device placed at the inlet of the chamber and controlled by a feedback device (Automatic Temperature Controller TC-324B, Warner Instruments). Cold-sensitivity was investigated with a temperature decrease to 16-18 °C. page 44: Figure 1S. […] A) […] compound 41 (blue line). Pre-application of compound (20 s) was followed by coapplication with 500 […] 41. […] C) […] Pre-application of […] Voltage was held at -60 mV for all the experiments. […] (1 picture or pasted object on this page, not shown here)

Experiment [3] has as its target TRPA1 (Homo sapiens, UniProt O75762). The experiment is described as follows: Whole-cell patch clamp in cells expressing TRPA1. On the procedure:
as §2

Experiment [4] has as its target Kv1.1 (Homo sapiens, UniProt Q09470). The experiment is described as follows: Whole-cell patch clamp in cells expressing Kv1.1. Here is the method: as §1, with “The temperature was adjusted with a water-cooled Peltier device placed at the inlet of the chamber and controlled by a feedback device (Automatic Temperature Controller TC-324B, Warner Instruments). Cold-sensitivity was investigated with a temperature decrease to 16–18 °C.” left out

Experiment [5] addresses NaV1.6 (Homo sapiens, UniProt Q9UQD0). As to the kind of experiment: Whole-cell patch clamp in cells expressing NaV1.6. Here is the method: as §1, with “The temperature was adjusted with a water-cooled Peltier device placed at the inlet of the chamber and controlled by a feedback device (Automatic Temperature Controller TC-324B, Warner Instruments). Cold-sensitivity was investigated with a temperature decrease to 16–18 °C.” left out

Chain of TRPA1 (O75762 whole entry, species assumed): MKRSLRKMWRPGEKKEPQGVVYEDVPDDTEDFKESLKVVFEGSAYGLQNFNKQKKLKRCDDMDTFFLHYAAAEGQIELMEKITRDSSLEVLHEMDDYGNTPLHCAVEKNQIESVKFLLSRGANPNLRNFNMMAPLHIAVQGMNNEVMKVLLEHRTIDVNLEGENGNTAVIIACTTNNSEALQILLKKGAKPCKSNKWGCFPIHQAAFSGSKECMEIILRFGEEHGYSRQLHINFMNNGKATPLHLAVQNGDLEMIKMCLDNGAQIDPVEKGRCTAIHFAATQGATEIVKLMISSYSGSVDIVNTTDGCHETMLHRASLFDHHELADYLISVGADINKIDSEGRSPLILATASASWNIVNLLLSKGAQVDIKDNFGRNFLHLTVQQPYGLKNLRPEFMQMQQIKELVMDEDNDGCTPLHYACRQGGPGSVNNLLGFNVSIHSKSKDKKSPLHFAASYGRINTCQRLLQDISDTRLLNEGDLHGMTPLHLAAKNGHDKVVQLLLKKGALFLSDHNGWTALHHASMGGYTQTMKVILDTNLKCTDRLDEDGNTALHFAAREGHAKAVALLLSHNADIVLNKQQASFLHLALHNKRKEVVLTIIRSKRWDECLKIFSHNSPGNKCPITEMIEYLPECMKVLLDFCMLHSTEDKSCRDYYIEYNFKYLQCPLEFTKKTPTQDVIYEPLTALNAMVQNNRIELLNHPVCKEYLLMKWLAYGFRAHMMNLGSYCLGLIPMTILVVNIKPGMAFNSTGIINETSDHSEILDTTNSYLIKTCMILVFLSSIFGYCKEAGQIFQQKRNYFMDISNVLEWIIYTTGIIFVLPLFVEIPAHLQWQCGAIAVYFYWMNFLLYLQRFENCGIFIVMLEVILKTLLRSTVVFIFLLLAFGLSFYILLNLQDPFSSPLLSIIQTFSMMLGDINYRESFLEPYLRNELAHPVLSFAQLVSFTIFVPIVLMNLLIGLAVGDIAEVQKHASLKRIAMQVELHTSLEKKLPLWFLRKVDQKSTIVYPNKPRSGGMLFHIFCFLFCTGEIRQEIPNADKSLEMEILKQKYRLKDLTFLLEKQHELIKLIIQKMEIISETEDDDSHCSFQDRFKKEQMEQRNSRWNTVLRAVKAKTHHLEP
Chain of Kv1.1 (Q09470 whole entry): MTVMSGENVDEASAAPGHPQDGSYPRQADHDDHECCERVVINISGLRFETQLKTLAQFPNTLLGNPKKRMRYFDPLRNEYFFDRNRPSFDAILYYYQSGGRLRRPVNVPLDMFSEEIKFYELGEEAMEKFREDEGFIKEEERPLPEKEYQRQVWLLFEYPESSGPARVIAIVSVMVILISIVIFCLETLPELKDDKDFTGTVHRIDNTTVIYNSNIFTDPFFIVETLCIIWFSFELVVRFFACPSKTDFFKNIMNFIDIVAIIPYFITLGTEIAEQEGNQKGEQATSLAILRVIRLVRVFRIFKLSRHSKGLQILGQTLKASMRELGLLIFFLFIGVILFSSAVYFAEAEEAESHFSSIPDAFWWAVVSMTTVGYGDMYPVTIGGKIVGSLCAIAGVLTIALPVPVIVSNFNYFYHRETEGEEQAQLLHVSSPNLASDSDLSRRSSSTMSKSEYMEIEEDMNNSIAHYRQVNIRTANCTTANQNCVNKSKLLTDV

Turning to `CC(C)(C)OC(=O)N[C@@H](CCN1C(=O)CC1(Cc1ccccc1)C(=O)OCc1ccccc1)C(=O)OCc1ccccc1` (stereo partly shown) [Compound 41, 4R,S-Benzyl-4-benzyloxycarbonyl-1-[(3′S-benzyloxycarbonyl-3-tert-butoxycarbonylamino-3′-benzyloxycarbonyl)prop-1′-yl]-2-oxoazetidine], in experiment [1] (1 µM compound), the “effect on menthol-evoked TRPM8 current at 1 µM” value was “almost totally absence of current”. The “effect on cold-evoked TRPM8 current” value in experiment [1] (1 µM compound) is reported as “significant decrease in the current intensity”. Also, the “reduction of voltage-mediated TRPM8 activity” value in experiment [1] (1 µM compound, depolarizing voltage +120 mV) stood at 90 ± 2%. Besides, the “agonist activity (activation) on TRPM8” value in experiment [1] (1 µM compound, −60 mV) was “did not produce activation”. The “reversibility of TRPM8 block” value in experiment [1] (1 µM, menthol pulse four minutes after removal of compound) is “reversible”. Further, the pIC50 in experiment [1] (−60 mV) was 7.34; in experiment [2], < 6.00; in experiment [3], < 6.00; in experiment [4] it was < 6.00; in experiment [5], < 6.00. The “Hill coefficient nH” value in experiment [1] (−60 mV) is recorded as −1.5 ± 0.3. Moreover, in experiment [2] (1 µM compound, −60 mV), the “agonist activity (activation) on TRPV1” value was “did not produce activation”. In experiment [3] (1 µM compound, −60 mV), the “agonist activity (activation) on TRPA1” value was “did not produce activation”.
Regarding `CC1C(=O)N(CC[C@H](NC(=O)OC(C)(C)C)C(=O)OCc2ccccc2)C1(Cc1ccccc1)C(=O)OCc1ccccc1` (stereo partly drawn) [Compound 45, 4R,S-Benzyl-4-benzyloxycarbonyl-1-[(3′S-benzyloxycarbonyl-3′-tert-butoxycarbonylamino)prop-1′-yl]-(3R,S)-methyl-2-oxoazetidine], the “effect on voltage-evoked TRPM8 outward currents” value in experiment [1] (1 µM compound) is recorded as “reduce significantly”. Besides, in experiment [1] (1 µM compound), the “effect on menthol-evoked TRPM8 current at 1 µM” value is recorded as “almost totally absence of current”. The “effect on cold-evoked TRPM8 current” value in experiment [1] (1 µM compound) is given as “reduce significantly”. Also, the pIC50 was 7.08 in experiment [1] (−60 mV); < 6.00 in experiment [2]; < 6.00 in experiment [3]; < 6.00 in experiment [4]; < 6.00 in experiment [5]. For the same compound, in experiment [1] (−60 mV), the “Hill coefficient nH” value is listed as −1.1 ± 0.2.
